Reference: patent publication US20220105170A1 (priority 2019, published 2022)
“And” between values parts separate entries of the source, which are not always exact repeats. Equal values may be shown once.

Each substance was assayed on peripheral blood lymphocytes collected from swine exposed to ASFV.
Format: cell-based

Row | Substance | Number of Spots
1 | 2126 (TAIQKNYFRF) [compound 2126] | 13
2 | 977 (LSSNYFYTF) [compound 977] | 18
3 | 1437 (KANKAFYINH) [compound 1437] | 12 and 16
4 | 1499 (AVNLLRQTF) [compound 1499] | 14
5 | 2251 (AIQYFYQRY) [compound 2251] | 12
6 | 1159 (MAEIRFLSM) [compound 1159] | 12
7 | 1461 (YTLLSPLQSY) [compound 1461] | 13 and 17
8 | 1761 (SVYHVQEEL) [compound 1761] | 12
9 | 1001 (FKLYYIPLSI) [compound 1001] | 21
10 | 1379 (VVSASAINF) [compound 1379] | 13
11 | 467 (QAYALEYAM) [compound 467] | 17
12 | 1955 (SSAELYRKM) [compound 1955] | 14
13 | 2139 (NYFRFFKKLL) [compound 2139] | 19
14 | 1651 (RFSRPGNNY) [compound 1651] | 17
15 | 2252 (AIQYFYQRYR) [compound 2252] | 13
16 | 2205 (SVEELLSAV) [compound 2205] | 13
17 | 641 (GRSLNMLSLI) [compound 641] | 16
18 | 884 (ISAINHFNY) [compound 884] | 19
19 | 1472 (KVDLPYHLM) [compound 1472] | 16
20 | 633 (ILEGVLGYF) [compound 633] | 14
21 | 847 (YINFRLKTFY) [compound 847] | 21
22 | 1507 (ATVSAIELEY) [compound 1507] | 13
23 | 1205 (QDYSLTFLLK) [compound 1205] | 17
24 | 849 (FLKKNIYLY) [compound 849] | 13
25 | 921 (SVLLRDSGYY) [compound 921] | 14

Row | Substance | Number of Spots
26 | 1824 (SMMDFERVHY) [compound 1824] | 14
27 | 1127 (RALKMYEDYY) [compound 1127] | 12
28 | 2181 (YPHIFYRPLY) [compound 2181] | 12
29 | 439 (ISPEKFIKI) [compound 439] | 16
30 | 1227 (ETYARLSSY) [compound 1227] | 12
31 | 960 (ETTLINCTYL) [compound 960] | 13
32 | 280 (SLSTLLLKY) [compound 280] | 12
33 | 66 (CTYGEGNGHY) [compound 66] | 62
34 | 1823 (YTKFFNCPF) [compound 1823] | 25
35 | 1278 (NYYPYYIY) [compound 1278] | 16
36 | 2142 (RFFKKLLTH) [compound 2142] | 12
37 | 2241 (YNLTEAIQYF) [compound 2241] | 14
38 | 335 (YLHETLFEL) [compound 335] | 12
39 | 954 (NNFTATCII) [compound 954] | 15
40 | 653 (WAVFTGNMEL) [compound 653] | 16
41 | 2137 (KNYFRFFKKL) [compound 2137] | 12
42 | 1875 (ISPRISYQF) [compound 1875] | 12
43 | 872 (RVDMNRFFQF) [compound 872] | 15 and 18
44 | 1347 (LMSALKWPI) [compound 1347] | 17
45 | 635 (IRGRSLNMLSL) [compound 635] | 12
46 | 1510 (FTDNAPAGHYY) [compound 1510] | 15
47 | 1950 (ELVDHIFNY) [compound 1950] | 16
48 | 1501 (ALDLSLIGFY) [compound 1501] | 14
49 | 608 (INCFNYCILY) [compound 608] | 13
50 | 1543 (NIYNYDYSF) [compound 1543] | 12

Row | Substance | Number of Spots
51 | 1701 (YTGIQSPLF) [compound 1701] | 13
52 | 278 (MRIEIFWEL) [compound 278] | 15
53 | 1514 (EAAELYFRL) [compound 1514] | 15
54 | 386 (RTENYNLVCEY) [compound 386] | 110
55 | 1006 (KRKKHVEEI) [compound 1006] | 13
56 | 1150 (KSQDTLHRF) [compound 1150] | 12
57 | 1630 (AMLEFKKFF) [compound 1630] | 12
58 | 1141 (ILAEYVYSY) [compound 1141] | 18
59 | 743 (SKFCNHMFF) [compound 743] | 16
60 | 329 (ASLDYGMNL) [compound 329] | 12
61 | 2213 (KTSSNIILY) [compound 2213] | 12
62 | 1841 (SMFKHFDNM) [compound 1841] | 17
63 | 1196 (KEMQDYSLTF) [compound 1196] | 17
64 | 1750 (SMSYFDGKTEY) [compound 1750] | 17
65 | 1370 (GAMMITFAL) [compound 1370] | 14
66 | 1566 (ARIYAGQGY) [compound 1566] | 14
67 | 1296 (HGQLQTFPR) [compound 1296] | 16
68 | 1503 (KTDPNFKNL) [compound 1503] | 13
69 | 241 (MVYNFNTLY) [compound 241] | 16
70 | 1828 (RSQTECGPY) [compound 1828] | 14
71 | 285 (QAMLSSIQYY) [compound 285] | 14
72 | 1531 (MVFNQLIASY) [compound 1531] | 12
73 | 478 (STYTEIVKY) [compound 478] | 33 and 19
74 | 1400 (KESAETIYTF) [compound 1400] | 14
75 | 1880 (FLNAYAHKL) [compound 1880] | 12

Row | Substance | Number of Spots
76 | 2225 (SFSEMLTRYW) [compound 2225] | 12
77 | 1413 (ISSMSVSTFW) [compound 1413] | 12
78 | 1852 (HTLIISPEF) [compound 1852] | 15
79 | 1633 (ITRQTFMDI) [compound 1633] | 14
80 | 1759 (VQLANSSVYY) [compound 1759] | 15
81 | 557 (LIEFLTGFF) [compound 557] | 16
82 | 1986 (KINQRSFSF) [compound 1986] | 13
83 | 2038 (CGKRNCPLYY) [compound 2038] | 12
84 | 963 (TLINCTYLTL) [compound 963] | 19
85 | 703 (STVITTAYNF) [compound 703] | 13
86 | 2185 (HIFYRPLYRY) [compound 2185] | 15
87 | 1080 (FRDHFIAL) [compound 1080] | 16
88 | 607 (NINCFNYCI) [compound 607] | 12
89 | 1394 (SSFKCWTCHLY) [compound 1394] | 14
90 | 1519 (FGMMNQTNY) [compound 1519] | 13
91 | 2118 (MMQTAIQKNYF) [compound 2118] | 13
92 | 1207 (DYSLTFLLKK) [compound 1207] | 17
93 | 2166 (KIDDFIRLY) [compound 2166] | 13
94 | 1648 (RTLMDQPTY) [compound 1648] | 14
95 | 889 (MMHYPTFNW) [compound 889] | 16
96 | 1706 (RLQTPIPVY) [compound 1706] | 13
97 | 297 (LRHNFTKAIHY) [compound 297] | 16
98 | 1019 (TQPLNPFPL) [compound 1019] | 21
99 | 835 (AMFFTRSEW) [compound 835] | 26
100 | 2183 (PHIFYRPLYR) [compound 2183] | 15

Row | Substance | Number of Spots
101 | 1693 (EVYAPYMHY) [compound 1693] | 12
102 | 1345 (RVRFSLIRV) [compound 1345] | 16
103 | 1649 (TLMDQPTY) [compound 1649] | 18
104 | 1982 (NAFEWIHFV) [compound 1982] | 14
105 | 926 (KQKHVSLLY) [compound 926] | 16
106 | 1388 (LVYELPAPF) [compound 1388] | 14
107 | 769 (RLNAPNLKY) [compound 769] | 13
108 | 357 (YSYCFIKHF) [compound 357] | 13
109 | 1491 (MIADAINQEF) [compound 1491] | 13
110 | 1204 (MQDYSLTF) [compound 1204] | 17
111 | 842 (SSMHSGMLY) [compound 842] | 13 and 23
112 | 1991 (KQELSRLIY) [compound 1991] | 29
113 | 827 (NNVSYYWGL) [compound 827] | 13
114 | 2125 (TAIQKNYFR) [compound 2125] | 14
115 | 1509 (TLAQVFESF) [compound 1509] | 17
116 | 839 (ASSSMHSGM) [compound 839] | 16
117 | 865 (RRVHASYPGY) [compound 865] | 15
118 | 1619 (IDFDPLVTFY) [compound 1619] | 16
119 | 784 (KSKQASISSI) [compound 784] | 12
120 | 1228 (SSYNRSLLH) [compound 1228] | 15
121 | 449 (HTIYQSYSL) [compound 449] | 19
122 | 1830 (SVMALAKMY) [compound 1830] | 12
123 | 836 (RSEWASSNTF) [compound 836] | 31
124 | 1459 (KITSVTEFY) [compound 1459] | 19
125 | 2075 (KSCYPLVFI) [compound 2075] | 12
